Experimental data reported in US4780452A, “F-substituted-3-β-D-ribofuranosyl-3H-imidazo[4,5-b]pyridines and pharmaceutical compositions thereof” (Burroughs Wellcome Co., priority 1986, dated 1988).

How the values were obtained:
[1] = Carrageenin Pleurisy Assay (CPA), acute anti-inflammatory activity; format: in vivo, rat; details: po, read-out: ED50, acute anti-inflammatory activity (CPA): dose required to reduce the 3 hour exudate volume by 50%
Protocol: Following the procedure described by Vinegar et al. in Proc. Soc. Exp. Biol. Med. 151, 5546, (1976), the acute anti-inflammatory activity of the Compound A (defined in Example 16, vide supra) was compared with that of known anti-inflammatory drugs, i.e., aspirin an acetaminophen in the rat. The average 3 hour exudate volume for each drug treated group was determined and the % inhibition relative to a solvent control group calculated, the ED50 being the dose required to reduce the 3 hour exudate volume by 50%.

[2] = Acetic Acid Writhing Test (AAWT), rat; format: in vivo; details: po, read-out: ED50, analgesic activity, AAWT (Rat)
From the text: (§1) Using the procedure described by Koster et al. in Fed. […] 26, Anti-inflammatory Drugs, Ed.

[3] = Yeast-induced hyperthermia assay, antipyretic activity; format: in vivo; details: po; rat, n exceeds 10
From the text: The Yeast-induced hyperthermia assay was used according to the procedure described by Khalili-Varasteh et al. in Arch. Int. Pharmacodyn.

[4] = New Trypsin Hyperalgesic Assay (NTHA); format: in vivo; details: po, 1 h, read-out: ED50, analgesic activity, NTHA (Rat): dose which reduced the average pain score 50% relative to solvent control
Protocol: A sensitive mild analgesic assay is the New Trypsin Hyperalgesic Assay (NTHA). At the start of the assay 250 μg of trypsin is injected in one hindlimb of each rat. Thirty minutes later each drug is given per os. One hour after the drugs are given the sensitivity of each rat to a 3.0 kg force is determined.

[5] = Acetic Acid Writhing Test (AAWT), mouse; format: in vivo; details: po, read-out: ED50, analgesic activity, AAWT (Mouse)
From the text: as §1

[6] = Toxicity (LD50); details: rat, in vivo; Charles River CD rats, males and females
[7] = rat, p.o., 250 μg trypsin in one hindlimb, 3.0 kg force one hour after drug, n exceeds 10

Row | SMILES | ED50 ([1]; Rattus norvegicus, 3 h) [mg/kg] | ED50 ([2]; Rattus norvegicus) [mg/kg] | ED50 [3] [mg/kg] | ED50 ([4]; Rattus norvegicus) [mg/kg] | ED50 ([5]; Mus musculus) [mg/kg] | ED50 [4, 7] [mg/kg] | ED50 ([1]; rat, p.o., 3 hour exudate volume, n exceeds 10) [mg/kg] | LD50 [6] [mg/kg] | ED50 ([2]; rat, p.o., n exceeds 10) [mg/kg] | ED50 ([5]; mouse, p.o., n exceeds 10) [mg/kg]
1 | CC(=O)Oc1ccccc1C(=O)O [Aspirin] | 28 ± 3.2 | 137 ± 16.9 | 50 ± 8.1 | 14 ± 2.7 | 21 ± 3.4 | – | – | – | – | –
2 | CC(=O)Nc1ccc(O)cc1 [Acetaminophen] | – | – | 72 ± 8.6 | – | – | 13 ± 1.7 | – | – | – | –
3 | OC[C@H]1O[C@@H](n2cnc3c(Nc4ccccc4)ccnc32)[C@H](O)[C@@H]1O [Compound A, 7-anilino-3-β-D-ribofuranosyl-3H-imidazo[4,5-b]pyridine] | – | – | 0.65 ± 0.06 | – | – | 0.1 ± 0.03 | 0.24 ± 0.063 | > 100 | 0.74 ± 0.093 | 0.33 ± 0.038
